Assay [1] has as its target T1, Alkaline phosphatase, tissue-nonspecific isozyme (Homo sapiens, UniProt P05186).
T1 sequence (P05186 whole entry): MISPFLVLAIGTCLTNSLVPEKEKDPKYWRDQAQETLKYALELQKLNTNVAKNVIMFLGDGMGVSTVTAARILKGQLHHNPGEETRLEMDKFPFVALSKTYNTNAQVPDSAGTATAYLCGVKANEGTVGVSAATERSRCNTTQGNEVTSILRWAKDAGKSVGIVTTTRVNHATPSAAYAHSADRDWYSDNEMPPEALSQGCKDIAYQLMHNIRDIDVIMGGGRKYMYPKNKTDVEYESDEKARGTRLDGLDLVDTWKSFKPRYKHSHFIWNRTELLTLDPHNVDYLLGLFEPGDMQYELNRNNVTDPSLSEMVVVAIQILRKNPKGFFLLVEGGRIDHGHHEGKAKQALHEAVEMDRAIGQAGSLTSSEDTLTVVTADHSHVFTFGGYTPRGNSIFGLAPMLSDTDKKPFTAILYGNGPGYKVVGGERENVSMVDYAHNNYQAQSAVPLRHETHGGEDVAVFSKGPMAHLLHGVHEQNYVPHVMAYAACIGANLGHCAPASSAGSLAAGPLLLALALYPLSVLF

Assay [2] concerns the target T2, Mannose-6-phosphate isomerase (Homo sapiens, UniProt P34949).
T2 sequence (P34949 whole entry): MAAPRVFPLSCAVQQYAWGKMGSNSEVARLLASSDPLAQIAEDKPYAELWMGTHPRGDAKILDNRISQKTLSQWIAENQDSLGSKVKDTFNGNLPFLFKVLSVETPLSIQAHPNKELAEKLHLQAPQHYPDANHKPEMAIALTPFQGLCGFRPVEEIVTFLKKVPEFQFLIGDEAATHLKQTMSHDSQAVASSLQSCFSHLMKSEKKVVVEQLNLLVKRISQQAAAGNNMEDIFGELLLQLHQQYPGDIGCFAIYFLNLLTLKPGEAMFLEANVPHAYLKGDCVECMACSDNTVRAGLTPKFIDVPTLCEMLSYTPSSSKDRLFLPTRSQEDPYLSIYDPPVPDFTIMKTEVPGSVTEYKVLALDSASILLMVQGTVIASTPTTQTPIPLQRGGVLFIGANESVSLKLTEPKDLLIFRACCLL
Put plainly: inhibitors of human PMI, primary screen, biochemical, fluorescence intensity, coupled assay (AID 1209).

For assay [3], the target named is T2, Mannose-6-phosphate isomerase. Put plainly: human PMI inhibitors, high substrate, primary screen, biochemical, fluorescence intensity, high mannose 6-phosphate (AID 1220).
The target of assay [4] is Cytochrome P450 3A4 (Homo sapiens, UniProt P08684).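 Further: CYP3A4 tested as one member of a cytochrome P450 panel screen.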
Assay [5] addresses Endoplasmic reticulum aminopeptidase 1 (Homo sapiens, UniProt Q9NZ08). The experiment in a line: ERAP1 aminopeptidase inhibitors, dose response, biochemical, cherry-pick, set 2, plate reader (AID 743314).
In assay [6] the target is Large T antigen (Simian virus 40, UniProt P03070). It is filed as functional, Betapolyomavirus macacae.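 Further: Confirmatory-stage PubChem screen for compounds that inhibit SV40 T antigen.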
Assay [7] addresses T3, Cytochrome P450 1A2 (Homo sapiens, UniProt P05177).
T3 sequence (P05177 whole entry): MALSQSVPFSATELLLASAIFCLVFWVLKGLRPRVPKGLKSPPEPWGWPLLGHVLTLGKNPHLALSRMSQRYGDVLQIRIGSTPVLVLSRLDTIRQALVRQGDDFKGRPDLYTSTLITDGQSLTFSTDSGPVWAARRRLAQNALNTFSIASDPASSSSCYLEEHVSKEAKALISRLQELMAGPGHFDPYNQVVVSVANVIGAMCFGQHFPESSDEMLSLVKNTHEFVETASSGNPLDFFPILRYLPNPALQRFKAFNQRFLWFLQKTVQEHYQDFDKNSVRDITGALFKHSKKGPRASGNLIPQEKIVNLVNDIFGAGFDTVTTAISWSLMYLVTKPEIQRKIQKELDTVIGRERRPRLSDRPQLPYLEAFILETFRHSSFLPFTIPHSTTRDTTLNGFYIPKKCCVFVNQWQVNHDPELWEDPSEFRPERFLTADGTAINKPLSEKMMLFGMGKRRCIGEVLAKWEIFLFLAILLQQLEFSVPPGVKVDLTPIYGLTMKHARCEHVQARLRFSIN

Assay [8] has as its target Prothrombin (Bos taurus, UniProt P00735). Put plainly: thrombin inhibition, dose response, biochemical, fluorescence polarization, uHTS hits (AID 602369). It is filed as functional. A general note: Fluorescence polarisation rises when a labelled molecule tumbles more slowly, as on binding a larger partner.
For assay [9], the target named is 26S proteasome non-ATPase regulatory subunit 14 (Homo sapiens, UniProt O00487). Put plainly: inhibition of proteasome subunit RPN11 – biochemical, fluorescence polarization, uHTS hits, confirmation (AID 602368). Type of assay: functional.
Assay [10] addresses 72 kDa type IV collagenase (Homo sapiens, UniProt P08253). Put plainly: Dose Response validation of uHTS RPN11 inhibitor hits using a MMP-2 Fluorescence assay. Type of assay: functional.
The target in assay [11] is Protein-tyrosine kinase 2-beta (Homo sapiens, UniProt Q14289).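 Further: potency of inhibitors of PYK2 kinase phosphorylation of poly-GT substrate.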
Assay [12] deals with Mothers against decapentaplegic homolog 3 (Homo sapiens, UniProt P84022). The experiment in a line: SMAD3 transcription factor inhibitors, dose response (AID 715). It is filed as functional.
For assay [13], the target named is Cytochrome P450 2D6 (Homo sapiens, UniProt P10635). The experiment in a line: qHTS Assay for Inhibitors and Substrates of Cytochrome P450 2D6. [Related pubchem assays: 410 ]. Type of assay: ADME. As to conditions: read-out: Potency. For orientation: In qHTS, concentration-response curves come from the screen itself.

Calls of active or inactive are those of the source.

Sequence of Protein-tyrosine kinase 2-beta (Q14289 whole entry): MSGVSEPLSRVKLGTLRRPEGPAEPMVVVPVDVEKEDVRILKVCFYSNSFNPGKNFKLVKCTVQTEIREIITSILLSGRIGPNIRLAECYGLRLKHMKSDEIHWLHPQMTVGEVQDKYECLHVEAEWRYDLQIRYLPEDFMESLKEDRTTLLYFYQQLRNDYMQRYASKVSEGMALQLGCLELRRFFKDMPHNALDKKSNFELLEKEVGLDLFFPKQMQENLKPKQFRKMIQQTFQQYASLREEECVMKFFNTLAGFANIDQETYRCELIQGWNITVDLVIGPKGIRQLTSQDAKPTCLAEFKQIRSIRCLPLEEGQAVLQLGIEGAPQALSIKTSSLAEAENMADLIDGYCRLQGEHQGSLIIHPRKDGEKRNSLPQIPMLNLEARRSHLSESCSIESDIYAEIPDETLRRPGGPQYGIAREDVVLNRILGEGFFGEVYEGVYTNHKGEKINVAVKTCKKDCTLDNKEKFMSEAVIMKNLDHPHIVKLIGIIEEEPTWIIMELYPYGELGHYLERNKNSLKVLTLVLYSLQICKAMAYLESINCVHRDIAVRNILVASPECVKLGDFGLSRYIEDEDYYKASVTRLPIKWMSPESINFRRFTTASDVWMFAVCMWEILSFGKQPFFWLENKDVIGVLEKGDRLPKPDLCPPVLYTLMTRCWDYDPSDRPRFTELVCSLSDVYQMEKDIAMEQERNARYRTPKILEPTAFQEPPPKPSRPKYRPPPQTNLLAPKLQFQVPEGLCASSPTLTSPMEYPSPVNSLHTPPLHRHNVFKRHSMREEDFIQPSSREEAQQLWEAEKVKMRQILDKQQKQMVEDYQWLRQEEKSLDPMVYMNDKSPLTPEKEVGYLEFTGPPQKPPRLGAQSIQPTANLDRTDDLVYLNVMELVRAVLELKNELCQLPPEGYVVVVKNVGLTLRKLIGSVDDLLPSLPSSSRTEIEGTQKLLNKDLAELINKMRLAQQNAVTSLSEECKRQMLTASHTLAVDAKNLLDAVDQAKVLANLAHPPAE
Sequence of Mothers against decapentaplegic homolog 3 (P84022 whole entry): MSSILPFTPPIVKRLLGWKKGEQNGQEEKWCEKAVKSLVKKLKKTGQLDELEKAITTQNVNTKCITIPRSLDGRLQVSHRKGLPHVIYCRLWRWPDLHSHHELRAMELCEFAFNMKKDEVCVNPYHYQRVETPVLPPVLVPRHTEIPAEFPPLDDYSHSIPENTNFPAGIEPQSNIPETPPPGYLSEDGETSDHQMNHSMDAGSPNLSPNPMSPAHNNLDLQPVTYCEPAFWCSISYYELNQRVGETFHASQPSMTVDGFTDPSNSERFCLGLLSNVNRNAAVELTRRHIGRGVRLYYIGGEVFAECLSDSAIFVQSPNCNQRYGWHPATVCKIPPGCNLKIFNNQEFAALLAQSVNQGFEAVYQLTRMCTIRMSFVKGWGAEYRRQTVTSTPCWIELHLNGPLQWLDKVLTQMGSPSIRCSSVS
Sequence of 26S proteasome non-ATPase regulatory subunit 14 (O00487 whole entry): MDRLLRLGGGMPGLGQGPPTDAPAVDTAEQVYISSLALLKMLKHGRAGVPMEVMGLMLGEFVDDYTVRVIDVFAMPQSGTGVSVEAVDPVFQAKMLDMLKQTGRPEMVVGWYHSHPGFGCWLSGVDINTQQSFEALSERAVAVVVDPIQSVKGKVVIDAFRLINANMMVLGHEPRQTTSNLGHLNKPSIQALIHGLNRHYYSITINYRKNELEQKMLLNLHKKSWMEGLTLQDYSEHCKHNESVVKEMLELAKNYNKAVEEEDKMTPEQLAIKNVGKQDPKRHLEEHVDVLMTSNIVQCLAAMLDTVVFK
Sequence of 72 kDa type IV collagenase (P08253 whole entry): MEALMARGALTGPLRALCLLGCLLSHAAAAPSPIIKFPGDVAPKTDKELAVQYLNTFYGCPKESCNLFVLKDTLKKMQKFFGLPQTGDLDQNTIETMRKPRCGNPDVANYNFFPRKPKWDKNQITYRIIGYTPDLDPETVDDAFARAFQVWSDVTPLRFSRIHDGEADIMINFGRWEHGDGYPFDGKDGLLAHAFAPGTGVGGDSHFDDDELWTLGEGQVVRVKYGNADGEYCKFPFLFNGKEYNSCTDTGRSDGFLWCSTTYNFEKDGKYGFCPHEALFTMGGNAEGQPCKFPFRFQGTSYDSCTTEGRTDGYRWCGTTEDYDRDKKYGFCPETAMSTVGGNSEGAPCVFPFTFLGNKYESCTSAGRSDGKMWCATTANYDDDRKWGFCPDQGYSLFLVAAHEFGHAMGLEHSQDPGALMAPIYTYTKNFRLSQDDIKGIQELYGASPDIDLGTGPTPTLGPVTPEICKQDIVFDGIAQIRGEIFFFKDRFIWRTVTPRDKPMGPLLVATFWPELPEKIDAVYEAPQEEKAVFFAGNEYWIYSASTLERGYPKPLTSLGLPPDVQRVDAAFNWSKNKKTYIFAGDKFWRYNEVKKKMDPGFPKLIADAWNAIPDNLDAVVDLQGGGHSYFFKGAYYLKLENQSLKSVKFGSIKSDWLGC
Sequence of Cytochrome P450 3A4 (P08684 whole entry): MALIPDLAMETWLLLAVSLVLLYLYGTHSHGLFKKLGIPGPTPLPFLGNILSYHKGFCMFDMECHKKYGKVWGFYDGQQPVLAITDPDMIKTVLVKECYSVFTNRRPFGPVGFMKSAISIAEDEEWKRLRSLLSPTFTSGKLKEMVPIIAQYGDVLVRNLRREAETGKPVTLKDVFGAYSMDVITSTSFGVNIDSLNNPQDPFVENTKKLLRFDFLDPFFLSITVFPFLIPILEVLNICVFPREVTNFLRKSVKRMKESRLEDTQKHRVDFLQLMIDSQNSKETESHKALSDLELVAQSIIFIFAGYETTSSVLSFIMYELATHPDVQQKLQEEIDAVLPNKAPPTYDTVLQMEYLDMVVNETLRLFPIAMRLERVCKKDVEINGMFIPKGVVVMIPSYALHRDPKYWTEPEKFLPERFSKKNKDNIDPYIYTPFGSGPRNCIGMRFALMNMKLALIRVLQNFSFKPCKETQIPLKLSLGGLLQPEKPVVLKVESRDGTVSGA
Sequence of Endoplasmic reticulum aminopeptidase 1 (Q9NZ08 whole entry): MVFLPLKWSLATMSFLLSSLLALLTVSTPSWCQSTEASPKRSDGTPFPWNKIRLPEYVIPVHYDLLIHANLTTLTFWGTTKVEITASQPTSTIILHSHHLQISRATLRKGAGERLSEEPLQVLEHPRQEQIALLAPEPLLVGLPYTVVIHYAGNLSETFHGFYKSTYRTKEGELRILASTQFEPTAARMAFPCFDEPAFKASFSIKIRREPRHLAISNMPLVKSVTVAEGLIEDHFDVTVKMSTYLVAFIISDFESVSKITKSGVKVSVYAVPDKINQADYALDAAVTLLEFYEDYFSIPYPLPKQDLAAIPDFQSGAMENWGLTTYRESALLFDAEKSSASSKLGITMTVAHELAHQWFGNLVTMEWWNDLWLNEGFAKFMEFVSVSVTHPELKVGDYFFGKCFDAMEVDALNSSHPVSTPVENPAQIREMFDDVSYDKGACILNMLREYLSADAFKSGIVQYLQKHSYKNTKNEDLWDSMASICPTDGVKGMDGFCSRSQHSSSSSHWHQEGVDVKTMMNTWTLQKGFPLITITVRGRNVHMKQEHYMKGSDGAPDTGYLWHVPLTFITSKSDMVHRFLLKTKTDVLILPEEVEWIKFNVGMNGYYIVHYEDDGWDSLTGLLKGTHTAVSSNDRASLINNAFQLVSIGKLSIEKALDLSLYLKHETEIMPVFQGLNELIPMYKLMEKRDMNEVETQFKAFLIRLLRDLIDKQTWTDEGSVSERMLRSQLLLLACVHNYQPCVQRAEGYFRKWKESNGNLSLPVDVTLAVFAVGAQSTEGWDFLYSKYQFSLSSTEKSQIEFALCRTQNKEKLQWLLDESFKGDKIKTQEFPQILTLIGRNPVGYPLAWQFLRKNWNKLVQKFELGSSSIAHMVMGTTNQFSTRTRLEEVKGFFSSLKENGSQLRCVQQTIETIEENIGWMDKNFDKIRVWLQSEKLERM
Sequence of Large T antigen (P03070 whole entry): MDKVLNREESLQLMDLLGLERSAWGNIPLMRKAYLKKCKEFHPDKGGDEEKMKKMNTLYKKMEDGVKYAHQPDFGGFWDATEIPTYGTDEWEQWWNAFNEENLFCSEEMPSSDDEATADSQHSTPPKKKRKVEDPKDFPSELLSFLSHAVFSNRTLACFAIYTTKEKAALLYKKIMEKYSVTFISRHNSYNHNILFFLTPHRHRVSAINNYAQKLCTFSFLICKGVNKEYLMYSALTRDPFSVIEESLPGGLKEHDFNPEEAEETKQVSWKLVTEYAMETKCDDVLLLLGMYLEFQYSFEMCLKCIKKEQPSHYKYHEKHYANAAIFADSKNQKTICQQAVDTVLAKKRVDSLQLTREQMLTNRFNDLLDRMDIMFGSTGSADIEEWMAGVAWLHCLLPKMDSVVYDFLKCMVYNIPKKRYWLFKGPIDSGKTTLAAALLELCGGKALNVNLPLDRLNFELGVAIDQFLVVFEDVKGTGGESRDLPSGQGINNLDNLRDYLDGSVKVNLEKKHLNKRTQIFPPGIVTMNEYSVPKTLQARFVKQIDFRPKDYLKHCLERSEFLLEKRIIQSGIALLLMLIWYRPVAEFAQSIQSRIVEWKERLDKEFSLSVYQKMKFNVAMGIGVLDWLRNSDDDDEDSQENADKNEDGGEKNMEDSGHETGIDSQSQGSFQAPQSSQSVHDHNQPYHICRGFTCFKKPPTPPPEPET

The term EC50 denotes the concentration that produces a half-maximal response. A low value points to higher potency in that assay. Take `COc1cc(C(=S)N2CCOCC2)ccc1OC(=O)/C=C/c1ccco1`: in assay [1], the EC50 is > 100 µM (not active).
In general, IC50 refers to the point on the concentration scale where inhibition reaches its midpoint. Consider `O=c1ccc2cc(O)c(O)cc2o1` [ESCULETIN], for which the IC50 in assay [2] was > 50 µM (not active); in [3] it was > 50 µM (not active); in assay [6], 25.9 µM (active). For the same compound, the AC50 was 12.6 µM (inconclusive) in assay [4], 9.72 µM (active) in [5] and 15.8 µM (inconclusive) in assay [7].
With `O=C(NCCCN1CCCCCC1)c1ccc(CS(=O)(=O)Cc2ccccc2F)o1`, the IC50 was 68.8 µM (active) in assay [8]; 7.28 µM (active) in assay [9]; > 100 µM (inactive) in assay [10]; 13.1 µM (not active) in assay [11]; 4.1 µM (active) in assay [12].
With `COc1ccc(C[C@@H]2NC[C@H](O)[C@H]2OC(C)=O)cc1`, the AC50 in assay [13] is 20 µM (inconclusive).

Source of the values: ChEMBL document CHEMBL1201862, “PubChem BioAssay data set” (2004).
